The target in the test is human 5-HT5A receptor (Homo sapiens (Human), UniProt P47898). Description: Test on a human 5-HT5A receptor binding inhibition ([3H]5-CT). The note with it: [3H]5-CT binding, membrane from HEK293 cells expressing human 5-HT5A receptor; Ki calculated from IC50. How it is done:
The ORF (open reading frame; protein coding region) of a human 5-HT5A receptor (Genbank AF498985) was cloned from a human hippocampus cDNA library, and then inserted into a pCR2.1 vector (Invitrogen), and Escherichia coli containing the plasmid was cultured in a large amount. Next, the full-length cDNA sequence of the human 5-HT5A receptor was analyzed, and recombined into a pCDNA3.1 vector (Invitrogen) as an expression vector and cultured in a large amount. HEK293 established cells (ATCC) derived from the human fetal kidney were seeded, the expression plasmid (1 μg) obtained above were added thereto with LIPOFECTAMINE 2000 (Invitrogen; 2 μl), the gene was transfected into HEK293 cells, and the expression cells were screened with a drug-resistant marker, Geneticin (G418 sulfate 500 μg/ml; Kanto Chemical Co., Inc.). Thus prepared recombinant cells which expressed the gene were cultured in a medium containing D-MEM (Dulbecco's modified eagle medium, Sigma), 10% FCS (Fetal calf serum: fetal bovine serum), 1% Pc./Sm (Penicillin/Streptomycin, Invitrogen), and 500 μg/ml G418 for 3 days. These experimental operations followed a manual for gene operation experiment and an instruction appended in a reagent, and the like, such as a known method (Sambrook, J. et al, Molecular Cloning-A Laboratory Manual”, Cold Spring Harabor laboratory, NY, 1989).
HEK293 cells for forced expressions of a human 5-HT5A receptor were cultured in a F500 plate, and scraped with a scraper. After centrifugation, the precipitate was collected, and an incubation buffer (50 mM Tris (HCl) (pH 7.4), 10 mM MgSO4, and 0.5 mM EDTA (ethylenediamine tetraacetic acid)) was added thereto. After homogenization, it was further centrifuged, and the incubation buffer was added to the precipitate, followed by thoroughly suspending. The operation was repeated, and protein concentration was measured, thereby completing preparation of the membrane.
A solution of the compound to be tested and 100 μM 5-CT (5-carboxamidetriptamine) in DMSO was added to a 96-well plate at 2 μl/well, suspended in an incubation buffer, and a membrane from HEK293 cells for forced expressions of a human 5-HT5A receptor prepared at 200 μg/ml was added at 100 μl/well. After incubation at room temperature for 15 minutes, a [^3H]5-CT solution (2 nM [^3H]5-CT, incubation buffer) was added thereto at 100 μl/well.
Separately, 100 μl of the solution was distributed into a liquid scintillation vial, and 2 ml of Aquasol II (registered trademark) was added thereto, followed by stirring. Then, radioactivity was measured by a liquid scintillation counter. It was incubated at 37° C. for 60 minutes. The reaction mixture was sucked into 96-well GF/C filter plate that had been pre-treated with 0.2% polyethyleneimine, and washed six times with an ice-cooled, 50 mM Tris (pH 7.5) buffer. The GF/C filter plate was dried.
Microscint TMPS (registered trademark) was added thereto at 40 μl/well. Radioactivity remaining on the GF/C filter plate was measured by a top counter.
The [^3H]5-CT binding inhibiting activity by the compound to be tested in each experiment was determined as an IC50 value with a radioactivity upon addition of DMSO alone being 0% inhibition, and a radioactivity upon addition of 1 μM 5-CT being 100% inhibition. Separately, Ki values were calculated from the Kd value of the [^3H]5-CT determined from Scatchard analysis, by the following equation. Ki=IC50(1+Concentraion of ligand added/Kd(4.95 nM))

Molecules are shown by their SMILES. Where a name gives a salt, the structure may show the parent alone.

Consider 56 molecules from patent US8853242B2, “Nitrogenous-ring acylguanidine derivative” (Astellas Pharma Inc., priority 2009, dated 2014).

human 5-HT5A receptor, sequence (P47898 whole entry): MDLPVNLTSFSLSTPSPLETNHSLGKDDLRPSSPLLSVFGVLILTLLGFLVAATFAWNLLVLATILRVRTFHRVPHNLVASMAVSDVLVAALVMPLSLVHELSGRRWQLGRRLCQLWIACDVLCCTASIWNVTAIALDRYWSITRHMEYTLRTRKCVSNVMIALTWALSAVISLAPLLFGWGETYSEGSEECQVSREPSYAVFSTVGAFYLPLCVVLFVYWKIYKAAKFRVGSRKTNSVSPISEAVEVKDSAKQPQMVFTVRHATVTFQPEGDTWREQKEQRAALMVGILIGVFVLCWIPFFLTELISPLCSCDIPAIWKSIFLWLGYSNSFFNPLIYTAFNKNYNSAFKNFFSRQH

What is called Ki is the equilibrium dissociation constant of an inhibitor or competing ligand from its target. `N#Cc1cc(Cl)ccc1-c1nccc2ccc(C(=O)N=C(N)N)cc12` [Example 140]: the Ki is 10 to 100 nM.

For the molecule `Cc1cc(-c2c(F)cccc2Cl)c2cc(C(=O)N=C(N)N)ccc2n1` [Example 7], the Ki was 10 to 100 nM.

With `N#Cc1cnc(-c2c(F)cc(F)cc2F)c2cc(C(=O)N=C(N)N)ccc12` [Example 143], the Ki is 10 to 100 nM. With `Cc1cc(C(=O)N=C(N)N)cc2c(-c3ccc(Cl)cc3F)ccnc12` [Example 67], the Ki was 1 to 10 nM. With `NC(N)=NC(=O)c1ccc2ncc(Cl)c(C3=CCCC3)c2c1` [Example 107] the figure was 1 to 10 nM; with `NC(N)=NC(=O)c1ccc2c(F)cnc(-c3ccncc3F)c2c1` [Example 165], 10 to 100 nM; with `NC(N)=NC(=O)c1ccc2nccc(-c3c(F)cncc3F)c2c1` [Example 52], 10 to 100 nM. The same measure for `Cc1ccc(-c2ccnc3c(C)cc(C(=O)N=C(N)N)cc23)c(F)c1` [Example 68]: 10 to 100 nM. The same measure for `COc1ncccc1-c1c(Cl)cnc2ccc(C(=O)N=C(N)N)cc12` [Example 106]: 10 to 100 nM; for `NC(N)=NC(=O)c1ccc2ncc(Cl)c(C3=CCCCC3)c2c1` [Example 102]: 1 to 10 nM. For the molecule `Cc1cc(-c2ccc(F)cc2F)c2cc(C(=O)N=C(N)N)cc(C)c2n1` [Example 85], the Ki is 1 to 10 nM. Take `NC(N)=NC(=O)c1ccc2ccnc(-c3ccc(Cl)cc3Cl)c2c1` [Example 138]: the Ki was 1 to 10 nM. `Cc1cc(C(=O)N=C(N)N)cc2c(-c3ccccc3F)c(Cl)cnc12` [Example 101]: the Ki is 1 to 10 nM. With `NC(N)=NC(=O)c1ccc2c(F)cnc(-c3cccc(F)c3Cl)c2c1` [Example 200] the figure was 1 to 10 nM. With `NC(N)=NC(=O)c1ccc2cccc(-c3ccccc3)c2n1` [Example 225] the figure was 100 to 300 nM; with `Cc1nc2ccc(C(=O)N=C(N)N)cc2c(-c2ccc(F)cc2F)c1Cl` [Example 88], 1 to 10 nM.

For the molecule `Cc1cc(-c2c(F)cc(F)cc2F)c2cc(C(=O)N=C(N)N)cc(C)c2n1` [Example 83], the inhibitory constant (Ki) was 1 to 10 nM. The same measure for `Cc1cc(C(=O)N=C(N)N)cc2c(-c3cc(F)ccc3Cl)ccnc12` [Example 64]: 10 to 100 nM; for `NC(N)=NC(=O)c1ccc2cncc(-c3ccc(F)cc3F)c2c1` [Example 228]: 10 to 100 nM; for `Cc1ccccc1-c1ncc(Cl)c2ccc(C(=O)N=C(N)N)cc12` [Example 213]: 1 to 10 nM. Consider `NC(N)=NC(=O)c1ccc2c(F)cnc(-c3cccc(F)c3F)c2c1` [Example 205], for which the inhibition constant Ki was 10 to 100 nM. With `N#Cc1ccc(-c2ccnc3ccc(C(=O)N=C(N)N)cc23)cc1` [Example 33], the Ki is 10 to 100 nM. The same measure for `NC(N)=NC(=O)c1cc(F)c2nccc(-c3c(F)cc(F)cc3F)c2c1` [Example 54]: 10 to 100 nM; for `NC(N)=NC(=O)c1ccc2nccc(-c3c(F)cc(F)cc3Cl)c2c1` [Example 8]: 1 to 10 nM. With `Cc1cc(C(=O)N=C(N)N)cc2c(-c3ccc(F)cc3F)c(Cl)cnc12` [Example 99] the figure was 1 to 10 nM; with `NC(N)=NC(=O)c1ccc2ncc(Cl)c(-c3ccccc3)c2c1` [Example 74], 1 to 10 nM. With `NC(N)=NC(=O)c1ccc2nccc(C3=CCCCC3)c2c1` [Example 62] the figure was 1 to 10 nM; with `CCc1cnc(-c2c(F)cccc2F)c2cc(C(=O)N=C(N)N)ccc12` [Example 172], 1 to 10 nM; with `NC(N)=NC(=O)c1ccc2c(Cl)cnc(-c3cc(F)ccc3F)c2c1` [Example 214], 1 to 10 nM.

As to `NC(N)=NC(=O)c1ccc2nccc(-c3cc(Cl)ccc3Cl)c2c1` [Example 18], the Ki was 10 to 100 nM. In the case of `Cc1nc2ccc(C(=O)N=C(N)N)cc2c(-c2ccncc2Cl)c1C` [Example 127], the Ki was 10 to 100 nM. The same measure for `NC(N)=NC(=O)c1ccc2nccc(-c3c(Cl)cc(Cl)cc3Cl)c2c1` [Example 27]: 1 to 10 nM. The same measure for `NC(N)=NC(=O)c1ccc2c(CO)cnc(-c3c(F)cc(F)cc3F)c2c1` [Example 2, N-(diaminomethylene)-4-(hydroxymethyl)-1-(2,4,6-trifluorophenyl)isoquinoline-7-carboxamide fumarate]: 10 to 100 nM; for `NC(N)=NC(=O)c1ccc2nccc(-c3ccccc3)c2c1` [Example 4]: 10 to 100 nM. With `NC(N)=NC(=O)c1ccc2c(Cl)cnc(-c3cc(F)c(F)cc3F)c2c1` [Example 212] the figure was 10 to 100 nM; with `NC(N)=NC(=O)c1ccc2c(Cl)cnc(-c3ccccc3F)c2c1` [Example 175], 1 to 10 nM; with `NC(N)=NC(=O)c1ccc2c(F)cnc(-c3ccc(F)cc3)c2c1` [Example 190], 1 to 10 nM. For the molecule `Cc1cnc2ccc(C(=O)N=C(N)N)cc2c1-c1ccccc1F` [Example 51], the Ki is 1 to 10 nM. The same measure for `NC(N)=NC(=O)c1ccc2c(Cl)cnc(-c3ccncc3F)c2c1` [Example 173]: 10 to 100 nM. On to `NC(N)=NC(=O)c1ccc2c(C(F)(F)F)cnc(-c3c(F)cccc3F)c2c1` [Example 196], for which the Ki was 10 to 100 nM.

Take `NC(N)=NC(=O)c1ccc2ccnc(-c3c(F)cc(F)cc3F)c2c1` [Example 1, N-(diaminomethylene)-1-(2,4,6-trifluorophenyl)isoquinoline-7-carboxamide dihydrochloride]: the Ki is 1 to 10 nM.

Regarding `NC(N)=NC(=O)c1ccc2ccnc(-c3c(F)cccc3Cl)c2c1` [Example 134], the inhibition constant Ki is 1 to 10 nM. With `NC(N)=NC(=O)c1ccc2ncc(Cl)c(-c3ccncc3F)c2c1` [Example 104] the figure was 1 to 10 nM. The same measure for `N#Cc1ccccc1-c1ccnc2ccc(C(=O)N=C(N)N)cc12` [Example 12]: 100 to 300 nM. The same measure for `CN/C(N)=N/C(=O)c1ccc2nccc(-c3c(F)cc(F)cc3F)c2c1` [Example 3, N-[1-amino(methylamino)methylene]-4-(2,4,6-trifluorophenyl)quinoline-6-carboxamide dihydrochloride]: 1 to 10 nM. With `Cc1cnc2ccc(C(=O)N=C(N)N)cc2c1-c1c(F)cc(F)cc1F` [Example 17], the inhibitory constant (Ki) was 1 to 10 nM. On to `NC(N)=NC(=O)c1ccc2nc(C(F)(F)F)cc(-c3c(F)cc(F)cc3F)c2c1` [Example 90], for which the Ki was 10 to 100 nM. The same measure for `CC(C)c1cnc(-c2c(F)cccc2F)c2cc(C(=O)N=C(N)N)ccc12` [Example 158]: 10 to 100 nM.

For the molecule `Cc1cccc(C)c1-c1ncc(Cl)c2ccc(C(=O)N=C(N)N)cc12` [Example 222], the inhibition constant (Ki) was 1 to 10 nM. With `Cc1cc(-c2ccccc2F)c2cc(C(=O)N=C(N)N)ccc2n1` [Example 82] the figure was 10 to 100 nM; with `Cc1nc2ccc(C(=O)N=C(N)N)cc2c(-c2c(F)cncc2F)c1C` [Example 131], 10 to 100 nM; with `NC(N)=NC(=O)c1ccc2ccnc(-c3ccccc3)c2c1` [Example 133], 10 to 100 nM. Take `Cc1nc2ccc(C(=O)N=C(N)N)cc2c(-c2ccc(F)cc2Cl)c1Cl` [Example 132]: the Ki was 1 to 10 nM. The same measure for `COc1cc(F)ccc1-c1ncc(F)c2ccc(C(=O)N=C(N)N)cc12` [Example 202]: 10 to 100 nM; for `Cc1cc(C(=O)N=C(N)N)cc2c(-c3c(F)cc(F)cc3F)ccnc12` [Example 39]: 1 to 10 nM; for `NC(N)=NC(=O)c1ccc2nc(C(F)(F)F)cc(-c3ccc(F)cc3F)c2c1` [Example 92]: 100 to 300 nM.
